What was measured:
muscarinic M1 receptor = molecular target: T1, muscarinic M1 receptor (Homo sapiens, UniProt P11229); details: cited from earlier work
T1 sequence (P11229 1-460): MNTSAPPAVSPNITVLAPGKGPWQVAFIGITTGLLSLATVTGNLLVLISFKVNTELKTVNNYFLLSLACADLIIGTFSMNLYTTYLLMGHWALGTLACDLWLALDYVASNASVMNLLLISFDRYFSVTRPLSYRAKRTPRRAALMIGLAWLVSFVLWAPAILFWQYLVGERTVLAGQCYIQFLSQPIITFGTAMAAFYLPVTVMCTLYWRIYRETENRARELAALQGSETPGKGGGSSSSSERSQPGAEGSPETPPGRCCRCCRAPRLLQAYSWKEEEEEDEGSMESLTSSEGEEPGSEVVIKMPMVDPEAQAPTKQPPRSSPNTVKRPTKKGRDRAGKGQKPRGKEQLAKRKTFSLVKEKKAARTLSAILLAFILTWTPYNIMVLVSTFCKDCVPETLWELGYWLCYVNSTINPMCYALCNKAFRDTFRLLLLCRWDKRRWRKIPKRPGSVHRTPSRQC

[1] = system: OPC (oligodendrocyte precursor cell); test: OPC Cell Activity; assay type: cell-based
[2] = system: Rat primary optic nerve oligodendrocyte progenitor cells (OPCs); test: OPC differentiation assay (MBP staining); assay type: cell-based; details: 6 days

| Compound | In vitro M1 (Conc) (muscarinic M1 receptor) | OPC Cell Activity ([1]; Table 1, in words) | further results |
| --- | --- | --- | --- |
| CCN(CC)CC1CCCCN1CC(=O)N1c2ccccc2C(=O)Nc2cccnc21 (stereo not shown) [AF-DX 116] | 417 nM |  |  |
| O=C(O[C@H]1C[N+]2(CCCOc3ccccc3)CCC1CC2)C(O)(c1cccs1)c1cccs1 [Aclidinium bromide] | 0.10 nM |  |  |
| CC(CN(C)C)CN1c2ccccc2Sc2ccccc21 (stereo not shown) [Alimemazine] | 398 nM |  |  |
| CN1[C@@H]2CC[C@H]1C[C@@H](OC(=O)C(CO)c1ccccc1)C2 (stereo partly shown) [Atropine] |  |  | OPC Cell Activity ([1]; Table 1): 5700 nM |
| CN1CCCC(n2nc(Cc3ccc(Cl)cc3)c3ccccc3c2=O)CC1 (stereo not shown) [Azelastine] | 4,200 nM |  |  |
| CN1[C@@H]2CC[C@H]1C[C@@H](OC(c1ccccc1)c1ccccc1)C2 [Benztropine] |  |  | OPC Cell Activity ([1]; Table 1): 170 to 350 nM |
| C[N+]1(C)CCCCC1COC(=O)C(O)(c1ccccc1)c1ccccc1 (stereo not shown) [Bevonium] |  | Active |  |
| OC(CCN1CCCCC1)(c1ccccc1)C1CC2C=CC1C2 (stereo not shown) [Biperiden] | 0.85 nM |  |  |
| CN(C)CCOC(c1ccc(Cl)cc1)c1ccccn1 (stereo not shown) [Carbinoxamine] | 740 nM |  |  |
| CN(C)CCCN1c2ccccc2Sc2ccc(Cl)cc21 [Chlorpromazine] |  | Active |  |
| Clc1ccc(Cn2c(CN3CCCC3)nc3ccccc32)cc1 [Clemizole] |  |  | OPC Cell Activity ([1]; Table 2, in words): Active |
| NC(=NCc1ccc(Cl)cc1)SCCCc1cnc[nH]1 [Clobenpropit] |  |  | OPC Cell Activity ([1]; Table 2): 125 nM |
| CC(CN(C)C)CN1c2ccccc2Sc2ccc(C#N)cc21 (stereo not shown) [Cyamemazine] | 11 nM |  |  |
| NC(=O)C(c1ccccc1)(c1ccccc1)[C@@H]1CCN(CCc2ccc3c(c2)CCO3)C1 [Darifenacin] |  | Active |  |
| CC(C1=C(CCN(C)C)Cc2ccccc21)c1ccccn1 (stereo not shown) [Dimetindene] | 320 nM |  |  |
| CN1CCC(OC(c2ccccc2)c2ccccc2)CC1 [Diphenylpyraline] |  | Active |  |
| CN(C)CCC[C@@]1(c2ccc(F)cc2)OCc2cc(C#N)ccc21 [Escitalopram] |  | Active |  |
| O=C1CCCN1c1ccc(Oc2ccc3c(c2)CCN(C2CCC2)CC3)nc1 [GSK-239512] |  |  | OPC Cell Activity ([1]; Table 2): 120 to 160 nM |
| c1cc2c(cc1-c1noc(CC3CCN(C4CCC4)CC3)n1)OCO2 [GSK-247246] |  |  | OPC Cell Activity ([1]; Table 2): 25 to 100 nM |
| C[N+]1(C)CCC(OC(=O)C(O)(c2ccccc2)C2CCCC2)C1 (stereo not shown) [Glycopyrronium bromide] | 0.42 nM |  |  |
| CN1CCCN(C(c2ccccc2)c2ccc(Cl)cc2)CC1 (stereo not shown) [Homochlorcyclizine] | 22 nM |  |  |
| OCCOCCN1CCN(C(c2ccccc2)c2ccc(Cl)cc2)CC1 (stereo not shown) [Hydroxyzine] | 3,800 nM | Active |  |
| CN1[C@@H]2CC[C@H]1C[C@@H](OC(=O)[C@H](CO)c1ccccc1)C2 [Hyoscyamine] |  | Active |  |
| CC(C)[N+]1(C)[C@@H]2CC[C@H]1C[C@@H](OC(=O)C(CO)c1ccccc1)C2 (stereo partly shown) [Ipratropium] | 1.31 nM | Active |  |
| C[C@@H]1CCCN1CCCOc1ccc(-c2ccc(=O)[nH]n2)cc1 [Irdabisant] |  |  | OPC Cell Activity ([1]; Table 2): 250 nM |
| CC(CN1c2ccccc2Sc2cccnc21)N(C)C (stereo not shown) [Isothipendyl] | 74 nM |  |  |

| Compound | In vitro M1 (Conc) (muscarinic M1 receptor) | OPC Cell Activity ([1]; Table 1, in words) | further results |
| --- | --- | --- | --- |
| CN(CCCN1c2ccccc2CCc2ccccc21)CC(=O)c1ccc(Cl)cc1 [Lofepramine] | 67 nM |  |  |
| CN1CCc2c(c3ccccc3n2Cc2ccccc2)C1 [Mebhydrolin] | 180 nM |  |  |
| C[N+]1(C)CCCC(OC(=O)C(O)(c2ccccc2)c2ccccc2)C1 (stereo not shown) [Mepenzolate] | 27 nM | Active |  |
| c1ccc2c(c1)Sc1ccccc1N2CC1CN2CCC1CC2 (stereo not shown) [Mequitazine] | 5.0 nM |  |  |
| CN1CCCCC1CCN1c2ccccc2Sc2ccc([S+](C)[O-])cc21 (stereo not shown) [Mesoridazine] | 10 nM |  |  |
| C[N+]1(C)[C@@H]2CC[C@H]1C[C@@H](OC(=O)C(CO)c1ccccc1)C2 (stereo partly shown) [Methylatropine] |  | Active |  |
| CCCC(CCC)C(=O)O[C@H]1C[C@H]2CC[C@@H](C1)[N+]2(C)C [Octatropine methylbromide] |  | Active |  |
| CCCCCCCCOc1ccccc1C(=O)Nc1ccc(C(=O)OCC[N+](C)(CC)CC)cc1 [Octylonium bromide] | 2 nM | Active |  |
| CCN(CC)CC#CCOC(=O)C(O)(c1ccccc1)C1CCCCC1 (stereo not shown) [Oxybutynin] |  |  | OPC Cell Activity ([1]; Table 1): 670 nM |
| CCN(CC)CCOCCOC(=O)C1(c2ccccc2)CCCC1 [Pentoxyverine, carbetapentane, Pentoxyverine] | 13 to 76 nM |  | OPC Cell Activity ([1]; Table 1): 260 nM |
| CCN1CCCC(OC(=O)C(c2ccccc2)c2ccccc2)C1 (stereo not shown) [Piperidolate] |  | Active |  |
| Clc1ccc(CCCOCCCN2CCCCC2)cc1 [Pitolisant (tiprolisant), Pitolisant] |  |  | dose sparing activity with respect to the other agent ([2]; clemastine fumarate 0 to 5 μM combined with pitolisant hydrochloride 0 to 2 μM): dose sparing activity; OPC differentiation (% of MBP+ cells) ([2]; pitolisant hydrochloride alone, 0 to 2 μM): induce OPC differentiation; OPC Cell Activity ([1]; Table 2): 14 to 100 nM |
| CCCNCC(O)COc1ccccc1C(=O)CCc1ccccc1 (stereo not shown) [Propafenone] |  | Active |  |
| CC(C)[N+](C)(CCOC(=O)C1c2ccccc2Oc2ccccc21)C(C)C [Propantheline] | 0.22 nM |  | OPC Cell Activity ([1]; Table 1): 1250 to 2950 nM |
| CCCOC(C(=O)OC1CCN(C)CC1)(c1ccccc1)c1ccccc1 [Propiverine] | 619 nM |  | OPC Cell Activity ([1]; Table 1): 420 nM |
| OCCOCCN1CCN(C2=Nc3ccccc3Sc3ccccc32)CC1 [Quetiapine] |  | Active |  |
| CN1[C@@H]2C[C@@H](OC(=O)[C@H](CO)c3ccccc3)C[C@H]1[C@@H]1O[C@@H]12 [Scopolamine] |  |  | OPC Cell Activity ([1]; Table 1): 5100 nM |
| O=C(O[C@H]1CN2CCC1CC2)N1CCc2ccccc2[C@@H]1c1ccccc1 [Solifenacin] | 25 nM | Active |  |
| C[N+]1(C)[C@@H]2C[C@@H](OC(=O)C(O)(c3cccs3)c3cccs3)C[C@H]1[C@@H]1O[C@@H]12 [Tiotropium bromide] | 0.13 nM | Active |  |
| Cc1ccc(O)c([C@H](CCN(C(C)C)C(C)C)c2ccccc2)c1 [Tolterodine] | 190 nM |  |  |
| OC(CCN1CCCCC1)(c1ccccc1)C1CCCCC1 (stereo not shown) [Trihexyphenidyl] |  | Active |  |
| CN(C)CCN(Cc1ccccc1)c1ccccn1 [Tripelennamine] | 1,3000 nM | Active |  |
| Cc1ccc(/C(=C\CN2CCCC2)c2ccccn2)cc1 [Triprolidine] | 15000 nM |  |  |
| O=C(CCNS(=O)(=O)c1cccc2nsnc12)N1CCN(c2ccncc2)CC1 [VU0409774] | 690 nM |  |  |
| Cc1noc(C)c1S(=O)(=O)N1CCN(c2ccc(N3CCCC(C)(C)C3)nn2)CC1 [VU6009833] | 288 nM |  |  |
| Aminobenzotropine |  | Active |  |
